# Experimental data published in PubChem BioAssay AID652069 (The Scripps Research Institute Molecular Screening Center, 2013).
# Activity calls are given as the source filed them.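 The calls were made as follows: active = growth ratio of SRC-3 knockout over parental cells of 1.2 or more, reached at 10 µM or lower; inactive = the rest.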
# Test system: HeLa SRC-3 KO vs WT growth ratio, MTT, 5 d
# Experiment: growth ratio of SRC-3 knockout versus wild-type cells – cell-based, HeLa, zinc finger nuclease knockout, MTT, selectivity assay for SRC-1/SRC-3 inhibitor project, late-stage follow-up (AID 652069)
# Conditions: at 10 µM (top of the series)
row,Structure (SMILES),"KO/WT growth ratio, higher = selective"
1,O=C(CCl)N1N=C(c2ccco2)CC1c1ccco1 (stereo unspecified),1.42
2,CCc1ccc(/C=C2\SC(=S)N(CCCC(=O)NCCCN3CCOCC3)C2=O)cc1,0.974 (inactive)
3,CCOC(=O)C(=CNc1ccc(NC2=NCC(C)S2)cc1)C(=O)OCC (stereo unspecified),1 (inactive)
4,Cc1c(Cl)cccc1N=c1c([N+](=O)[O-])nn(-c2ccc3c(c2)OCCO3)n1O,1.03 (inactive)
5,O=C(Nc1cccnc1)c1ccc(C(=O)Nc2cccnc2)cc1,1.07 (inactive)
6,O=C(O)CN1C(=O)/C(=C\c2ccccc2OCc2ccc(Cl)cc2Cl)SC1=S,1.02 (inactive)
7,S=C(Nc1ccccc1)Nc1ccc(OCc2ccc(Cl)cc2Cl)cc1,1.05 (inactive)
8,Cc1ccc(/C=C2\SC(=S)N(CCCC(=O)NC3CCCC3)C2=O)cc1,0.962 (inactive)
9,CCOc1ccc(/C=C2\SC(=S)N(CCCC(=O)NCCCN3CCOCC3)C2=O)cc1,1.03 (inactive)
10,Cc1cc(C)cc(N=c2c([N+](=O)[O-])nn(-c3ccc4c(c3)OCCO4)n2O)c1,0.985 (inactive)
11,O=C1CCC2S/C(=C/Nc3ccc(C(F)(F)F)cc3)C(=O)N12 (stereo unspecified),1.02 (inactive)
12,Cc1c(/C(O)=C2/C(=O)C(=O)N(Cc3cccnc3)C2c2ccccn2)cnn1-c1ccccc1 (stereo unspecified),0.966 (inactive)
13,Cc1ccc(N=c2c([N+](=O)[O-])nn(-c3ccc4c(c3)OCCO4)n2O)c(Cl)c1,1.06 (inactive)
14,Cc1c(CC(=O)NCCCC(=O)O)c(=O)oc2cc3c(cc12)CCC(C)(C)O3,1.04 (inactive)
15,Cc1cc(N=c2c([N+](=O)[O-])nn(-c3ccc4c(c3)OCCO4)n2O)ccc1Br,0.974 (inactive)
16,COc1cc(C2c3cc4c(cc3C(OC3OC5COC(c6cccs6)OC5C(O)C3O)C3COC(=O)C23)OCO4)cc(OC)c1O (stereo unspecified),1.2
17,Cc1nn(CC(=O)N2CCN(c3cccc(C(F)(F)F)c3)CC2)c(=O)c2cccn12,1.09 (inactive)
18,O=C(COC(=O)c1ccc[nH]c1=O)Nc1ccc(N2CCCCC2)cc1,0.954 (inactive)
19,O=C(CCl)NC(Cc1ccccc1)c1ccccc1 (stereo unspecified),1.07 (inactive)
20,NS(=O)(=O)c1ccc(Nc2nc(-c3cccnc3)cs2)cc1,0.928 (inactive)
21,O=[N+]([O-])c1nn(-c2ccc3c(c2)OCCO3)n(O)c1=Nc1ccccc1,0.918 (inactive)
22,NC(=O)c1sc2nc3c(c(-c4ccco4)c2c1N)CCC3,1.23
23,O=C(CCl)N1N=C(c2ccco2)CC1c1cccs1 (stereo unspecified),2.05
24,COc1ccc(/C=C2/SC(=S)N(CCC(=O)O)C2=O)cc1,1.07 (inactive)
25,O=[N+]([O-])c1cccc2c1ccc1ncccc12,1.09 (inactive)
26,O=C(NC(NC(=S)N1CCOCC1)C(Cl)(Cl)Cl)c1ccc(Cl)cc1 (stereo unspecified),1.05 (inactive)

row,Structure (SMILES),"KO/WT growth ratio, higher = selective"
1,Cc1ccc(OCC(=O)c2cc(C)n(-c3ccccc3)c2C)c([N+](=O)[O-])n1,0.934 (inactive)
2,Cc1ccc(N=c2c([N+](=O)[O-])nn(-c3ccc4c(c3)OCCO4)n2O)cc1F,1.02 (inactive)
3,COc1cc2c(cc1OC)C(NC(=O)C(F)(F)F)CNC2=O (stereo unspecified),1.47
4,Cc1cc(/C=C2\Cc3ccccc3C2=O)c(C)n1-c1ccccc1,1.01 (inactive)
5,Cc1ccc(/C=C2/SC(=S)N(CCCC(=O)Nc3ccc(O)cc3)C2=O)cc1,1.11 (inactive)
6,CCC(=O)N1CCN(c2ccnc3cc(Cl)ccc23)CC1,1.11 (inactive)
7,O=[N+]([O-])c1nn(-c2ccc3c(c2)OCCO3)n(O)c1=Nc1ccc(Cl)cc1,0.995 (inactive)
8,Cn1nc(C(F)(F)F)c(C#N)c1N1CCN(c2ccc(F)cc2)CC1,0.976 (inactive)
9,S=C(c1ccc(-c2ccccc2)cc1)N1CCOCC1,0.918 (inactive)
10,NC(=S)NN=C1CCSc2ccc(Cl)cc21,1.09 (inactive)
11,CN(C)c1ccc(CNC(=O)CCNS(=O)(=O)c2cc(Br)cnc2N)cc1,1.04 (inactive)
12,CC(C)N(c1ccccc1)c1ccc(NC(=O)CCl)cc1,1.07 (inactive)
13,O=C(Nc1nc(-c2ccccn2)cs1)c1cccc(S(=O)(=O)N2CCOCC2)c1,1.23
14,CCc1ccc(N=c2c([N+](=O)[O-])nn(-c3ccc4c(c3)OCCO4)n2O)cc1,0.982 (inactive)
15,CC(C)n1c(SCC(=O)Nc2nc3c(s2)CCCC3)nc2c1c(=O)n(C)c(=O)n2C,1.03 (inactive)
16,O=C(Nc1nc2ccccc2s1)C1c2ccccc2Oc2ccccc21,1.05 (inactive)
17,CC(=O)/C(N=Nc1ccc2c(c1)OCCO2)=C(/C)O,1.02 (inactive)
18,Cc1cccc(NC(=O)c2cc(Cl)ccc2[N+](=O)[O-])c1,1.09 (inactive)
19,CC(=O)N1CCN(c2ncnc3ccccc23)CC1,0.988 (inactive)
20,c1ccc(-c2nnc(-c3ccccn3)nc2NC2CCCCC2)cc1,1.01 (inactive)
21,O=C(CCCc1nc(-c2ccccc2Cl)no1)NC1CCCC1,1.06 (inactive)
22,Cc1ccc(OCC(=O)c2cc(C)n(Cc3cccs3)c2C)c([N+](=O)[O-])n1,0.969 (inactive)
23,CCCCC(=O)Nc1cccn2ncnc12,0.954 (inactive)
24,COc1cc(N=c2c([N+](=O)[O-])nn(-c3ccc4c(c3)OCCO4)n2O)cc(OC)c1,1.09 (inactive)
25,COC(=O)c1c(C)n(-c2ccc(OC)cc2)c2ccc(O)cc12,1.01 (inactive)
